This note sets out measurements from patent publication US20240425490A1, “SULFAMIDE RIBONUCLEOTIDE REDUCTASE (RNR) INHIBITORS AND USES THEREOF” (Boundless Bio, Inc., priority 2021, published 2024).

For this assay, the target named is T1, RNR (RNR1:RNR2 1:1) (Homo sapiens, UniProt P23921).
T1 sequence (P23921 1-792): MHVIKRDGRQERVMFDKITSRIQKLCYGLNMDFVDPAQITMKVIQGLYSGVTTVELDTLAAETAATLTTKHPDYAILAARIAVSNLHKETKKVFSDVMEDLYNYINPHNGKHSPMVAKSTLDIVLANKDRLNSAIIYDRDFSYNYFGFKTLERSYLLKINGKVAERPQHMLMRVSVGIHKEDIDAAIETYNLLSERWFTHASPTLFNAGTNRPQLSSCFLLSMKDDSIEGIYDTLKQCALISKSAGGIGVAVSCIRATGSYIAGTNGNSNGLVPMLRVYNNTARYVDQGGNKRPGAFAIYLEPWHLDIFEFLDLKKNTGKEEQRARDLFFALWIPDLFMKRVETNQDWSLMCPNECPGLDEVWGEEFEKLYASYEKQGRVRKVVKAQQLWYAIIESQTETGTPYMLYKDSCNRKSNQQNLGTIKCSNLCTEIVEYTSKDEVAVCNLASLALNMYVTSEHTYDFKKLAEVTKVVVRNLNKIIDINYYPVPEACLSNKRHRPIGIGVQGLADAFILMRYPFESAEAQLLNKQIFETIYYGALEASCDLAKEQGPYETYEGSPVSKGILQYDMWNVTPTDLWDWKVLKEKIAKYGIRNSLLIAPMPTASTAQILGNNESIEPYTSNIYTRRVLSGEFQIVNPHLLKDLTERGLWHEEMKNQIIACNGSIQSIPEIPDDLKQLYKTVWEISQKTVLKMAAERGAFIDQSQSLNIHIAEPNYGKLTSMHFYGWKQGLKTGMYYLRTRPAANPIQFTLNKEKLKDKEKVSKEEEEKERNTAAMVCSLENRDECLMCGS
The assay is described as follows: RNR enzyme activity, rapid-fire mass spectrometry (RFMS) assay. In kind it is biochemical. To be noted: RNR 50 nM, CDP 5 μM, ATP 1 mM, 37° C., 45 min, compounds screened up to 50 μM, read-out: RF/MS IC50. Here is the method:
A rapid-fire mass spectrometry (RFMS) assay was used to assess RNR enzyme activity using a 384 well plate and a robotic platform.
The plate layout included two validated reference compounds (Triapine (3-AP) and Hydroxyurea (HU)): • A dose response in duplicate; top concentration: 5 μM (3-AP) and 250 μM (HU), semi-log dilutions. • Spike wells in triplicate randomly spotted at four concentrations: • 250 μM, 100 μM, 30 μM and 2 μM for HU • 5 μM, 2 μM, 0.6 μM and 0.04 μM for 3-AP
First, the multidrop pipes were saturated for 30 minutes with enzymatic solution. Then 30 μL of Stop solution was distributed in column 24. Next, 15 μL of enzyme was distributed in column 1 to 24. Next, a pre-incubation step of 15 minutes at room temperature occurred, followed by distribution of 15 μL of substrate solution (column 1 to 24). Next, the plate was incubated for 45 minutes at 37° C. 30 μL of Stop solution was distributed to columns 1 to 23.
The final parameters for the enzyme reactions were: • Incubation: 37° C., 45 min • [CDP]: 5 μM; [ATP]: 1 mM; [NADPH]: No • [RNR] final: 50 nM with 1:1 (RNR1:RNR2) ratio • Final volume: 30 μL • Stop solution: 6% HCOOH containing 2 μM of 15
Take `CNC(=O)C1CCN(S(=O)(=O)N[C@H](c2n[nH]c(=O)o2)[C@@H](C)c2c(F)ccc(C)c2C)CC1` [Example 56, 1-(N-((1S,2S)-2-(6-fluoro-2,3-dimethylphenyl)-1-(5-oxo-4,5-dihydro-1,3,4-oxadiazol-2-yl)-propyl)sulfamoyl)-N-methylpiperidine-4-carboxamide]: the IC50 lay in the range of 10 to 100 µM.
With `Cc1ccc(F)c([C@@H](C)[C@H](NS(=O)(=O)N2CCC(C(C)(C)C)CC2)c2n[nH]c(=O)o2)c1C` [Example 131, 4-(tert-butyl)-N-((1S,2R)-2-(6-fluoro-2,3-dimethylphenyl)-1-(5-oxo-4,5-dihydro-1,3,4-oxadiazol-2-yl)propyl)piperidine-1-sulfonamide], the IC50 lay within 0.1 to 1 µM.
In the case of `Cc1ccc(F)c(C(C)[C@H](NS(=O)(=O)N2CCC(CN3CCCC3=O)CC2)c2n[nH]c(=O)o2)c1C` (stereo partly drawn) [Example 65, N-((1S)-2-(6-fluoro-2,3-dimethylphenyl)-1-(5-oxo-4,5-dihydro-1,3,4-oxadiazol-2-yl)propyl)-4-((2-oxopyrrolidin-1-yl)methyl)piperidine-1-sulfonamide], the IC50 fell in the range of 0.1 to 1 µM.
Turning to `Cc1ccc(F)c([C@@H](C)[C@H](NS(=O)(=O)N2CCC(S(C)(=O)=O)CC2)c2n[nH]c(=O)o2)c1C` [Example 51, N-((1S,2R)-2-(6-fluoro-2,3-dimethylphenyl)-1-(5-oxo-4,5-dihydro-1,3,4-oxadiazol-2-yl)propyl)-4-(methylsulfonyl)piperidine-1-sulfonamide], the IC50 lay in the range of 10 to 100 µM.
Take `Cc1ccc(F)c([C@H](C)[C@H](NS(=O)(=O)N2CCC3(CC2)CC(F)(F)C3)c2n[nH]c(=O)o2)c1C` [Example 95, 2,2-difluoro-N-((1S,2S)-2-(6-fluoro-2,3-dimethylphenyl)-1-(5-oxo-4,5-dihydro-1,3,4-oxadiazol-2-yl)propyl)-7-azaspiro[3.5]nonane-7-sulfonamide]: the IC50 was 1 to 10 µM.
On to `Cc1ccc(F)c([C@H](C)[C@H](NS(=O)(=O)N2CC3CC3C2)c2n[nH]c(=O)o2)c1C` (stereo partly drawn) [Example 104, N-((1S,2S)-2-(6-fluoro-2,3-dimethylphenyl)-1-(5-oxo-4,5-dihydro-1,3,4-oxadiazol-2-yl)propyl)-3-azabicyclo[3.1.0]hexane-3-sulfonamide], for which the IC50 was 10 to 100 µM.
Next, `Cc1ccc(F)c([C@@H](C)[C@H](NS(=O)(=O)N2CCC(Cl)CC2)c2n[nH]c(=O)o2)c1C` [Example 5, 4-chloro-N-((1S,2R)-2-(6-fluoro-2,3-dimethylphenyl)-1-(5-oxo-4,5-dihydro-1,3,4-oxadiazol-2-yl)propyl)piperidine-1-sulfonamide]: 0.1 to 1 µM; `Cc1ccc(F)c([C@@H](C)[C@H](NS(=O)(=O)N2CCC3(CC2)OCCCO3)c2n[nH]c(=O)o2)c1C` [Example 85, N-((1S,2R)-2-(6-fluoro-2,3-dimethylphenyl)-1-(5-oxo-4,5-dihydro-1,3,4-oxadiazol-2-yl)propyl)-1,5-dioxa-9-azaspiro[5.5]undecane-9-sulfonamide]: 0.1 to 1 µM; `Cc1ccc(F)c([C@@H](C)[C@H](NS(=O)(=O)N2CCC[C@](C)(O)C2)c2n[nH]c(=O)o2)c1C` [Example 20, (S)-N-((1S,2R)-2-(6-fluoro-2,3-dimethylphenyl)-1-(5-oxo-4,5-dihydro-1,3,4-oxadiazol-2-yl)propyl)-3-hydroxy-3-methylpiperidine-1-sulfonamide]: 1 to 10 µM.
With `Cc1ccc(F)c([C@H](C)[C@H](NS(=O)(=O)N2CCC3(CCO3)CC2)c2n[nH]c(=O)o2)c1C` [Example 61, N-((1S,2S)-2-(6-fluoro-2,3-dimethylphenyl)-1-(5-oxo-4,5-dihydro-1,3,4-oxadiazol-2-yl)propyl)-1-oxa-7-azaspiro[3.5]nonane-7-sulfonamide], the IC50 was in the range of 10 to 100 µM.
For `Cc1ccc(F)c(C(C)[C@H](NS(=O)(=O)N2CCC(N3CCCC3=O)CC2)c2n[nH]c(=O)o2)c1C` (stereo partly drawn) [Example 80, N-((1S)-2-(6-fluoro-2,3-dimethylphenyl)-1-(5-oxo-4,5-dihydro-1,3,4-oxadiazol-2-yl)propyl)-4-(2-oxopyrrolidin-1-yl)piperidine-1-sulfonamide], the IC50 is 1 to 10 µM.
Next, `Cc1ccc(F)c([C@H](C)[C@H](NS(=O)(=O)N2CCC3(CCCCC3)CC2)c2n[nH]c(=O)o2)c1C` [Example 88, N-((1S,2S)-2-(6-fluoro-2,3-dimethylphenyl)-1-(5-oxo-4,5-dihydro-1,3,4-oxadiazol-2-yl)propyl)-3-azaspiro[5.5]undecane-3-sulfonamide]: 1 to 10 µM.
On to `Cc1ccc(F)c(C(C)[C@H](NS(=O)(=O)N2CCCC3CN(C(=O)OC(C)(C)C)CC32)c2n[nH]c(=O)o2)c1C` (stereo partly drawn) [Example 23, tert-butyl 1-(N-((1S)-2-(6-fluoro-2,3-dimethylphenyl)-1-(5-oxo-4,5-dihydro-1,3,4-oxadiazol-2-yl)propyl)sulfamoyl)-octahydro-6H-pyrrolo[3,4-b]pyridine-6-carboxylate], for which the IC50 was in the range of 1 to 10 µM.
The figure for `Cc1ccc(F)c([C@H](C)[C@H](NS(=O)(=O)N2CC3CCCC(C3)C2)c2n[nH]c(=O)o2)c1C` [Example 42, N-((1S,2S)-2-(6-fluoro-2,3-dimethylphenyl)-1-(5-oxo-4,5-dihydro-1,3,4-oxadiazol-2-yl)propyl)-3-azabicyclo[3.3.1]nonane-3-sulfonamide] is 10 to 100 µM; for `COC(=O)C1(C)CCN(S(=O)(=O)N[C@H](c2n[nH]c(=O)o2)[C@H](C)c2c(F)ccc(C)c2C)CC1` [Example 78, methyl 1-(N-((1S,2R)-2-(6-fluoro-2,3-dimethylphenyl)-1-(5-oxo-4,5-dihydro-1,3,4-oxadiazol-2-yl)propyl)sulfamoyl)-4-methylpiperidine-4-carboxylate] it is 0.1 to 1 µM; for `Cc1ccc(F)c(C(C)[C@H](NS(=O)(=O)N2CCC(c3ncc[nH]3)CC2)c2n[nH]c(=O)o2)c1C` (stereo partly drawn) [Example 90, N-((1S)-2-(6-fluoro-2,3-dimethylphenyl)-1-(5-oxo-4,5-dihydro-1,3,4-oxadiazol-2-yl)propyl)-4-(1H-imidazol-2-yl)piperidine-1-sulfonamide] it is 1 to 10 µM.
Next, `Cc1ccc(F)c(C(C)[C@H](NS(=O)(=O)N2CCC(C#N)CC2)c2n[nH]c(=O)o2)c1C` (stereo partly drawn) [Example 123, 4-cyano-N-((1S)-2-(6-fluoro-2,3-dimethylphenyl)-1-(5-oxo-4,5-dihydro-1,3,4-oxadiazol-2-yl)propyl)piperidine-1-sulfonamide]: 0.1 to 1 µM; `Cc1ccc(F)c([C@H](C)[C@H](NS(=O)(=O)N2CCC3(CCCC3)CC2)c2n[nH]c(=O)o2)c1C` [Example 72, N-((1S,2S)-2-(6-fluoro-2,3-dimethylphenyl)-1-(5-oxo-4,5-dihydro-1,3,4-oxadiazol-2-yl)propyl)-8-azaspiro[4.5]decane-8-sulfonamide]: 1 to 10 µM; `CCCCC1CCN(S(=O)(=O)N[C@H](c2n[nH]c(=O)o2)[C@H](C)c2c(F)ccc(C)c2C)CC1` [Example 79, 4-butyl-N-((1S,2R)-2-(6-fluoro-2,3-dimethylphenyl)-1-(5-oxo-4,5-dihydro-1,3,4-oxadiazol-2-yl)propyl)piperidine-1-sulfonamide]: 1 to 10 µM.
Next, `Cc1ccc(F)c([C@@H](C)[C@H](NS(=O)(=O)N2CC3CCCC(C3)C2)c2n[nH]c(=O)o2)c1C` [Example 7, N-((1S,2R)-2-(6-fluoro-2,3-dimethylphenyl)-1-(5-oxo-4,5-dihydro-1,3,4-oxadiazol-2-yl)propyl)-3-azabicyclo[3.3.1]nonane-3-sulfonamide]: 10 to 100 µM.
